Assay results as given in patent publication US10934310B2, “Inhibitors of Bruton's tyrosine kinase and method of their use” (JANSSEN PHARMACEUTICA NV, priority 2015, dated 2021).

Target: unphosphorylated-BTK kinase domain (UP-BTK), GST-tagged human BTK (389-659aa) (Homo sapiens (Human), UniProt Q06187)
Assay: BTK Kinase Lanthascreen Binding Assay
Conditions: compound, 50 nM Tracer 236, 2 nM anti-GST antibody, 60 minutes; pIC50 = negative log of the IC50 in molar
Experimental: BTK Kinase Lanthascreen Binding Assay:
A BTK kinase lanthascreen binding assay monitors compound binding to unphosphorylated-BTK kinase domain (UP-BTK), by competing with a fluorescent labeled tracer. […] Data were analyzed using Xlfit™ version 5.3 from ID Business Solutions (Guildford), Microsoft Excel add-in. pIC50 refers to the negative log of the IC50 in molar.

Chain of unphosphorylated-BTK kinase domain (UP-BTK), GST-tagged human BTK (389-659aa) (Q06187 389-659): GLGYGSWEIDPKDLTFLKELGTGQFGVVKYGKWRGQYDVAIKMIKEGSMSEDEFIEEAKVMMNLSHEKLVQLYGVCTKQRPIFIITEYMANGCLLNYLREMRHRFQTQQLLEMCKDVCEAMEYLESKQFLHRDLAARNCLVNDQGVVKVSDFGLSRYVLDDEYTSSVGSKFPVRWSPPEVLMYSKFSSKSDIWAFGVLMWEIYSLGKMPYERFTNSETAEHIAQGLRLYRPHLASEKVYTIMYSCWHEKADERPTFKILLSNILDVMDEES

Compound	BTK_I_binding pIC50
Cc1cc(Oc2ccccc2)ccc1N1C(=O)Nc2c(C(=O)N[C@@]34C[C@@H]5C[C@@H](C[C@@](O)(C5)C3)C4)sc3nccc1c23 [Example 30, N-((1r,3s,5R,7S)-3-Hydroxyadamantan-1-yl)-5-(2-methyl-4-phenoxyphenyl)-4-oxo-4,5-dihydro-3H-1-thia-3,5,8-triazaacenaphthylene-2-carboxamide]	6.36
CNC1CCCCC1NC(=O)c1sc2nccc3c2c1NC(=O)N3c1ccc(Oc2ccccc2)cc1C (stereo not drawn) [Example 31, 5-(2-Methyl-4-phenoxyphenyl)-N-(2-(methylamino)cyclohexyl)-4-oxo-4,5-dihydro-3H-1-thia-3,5,8-triazaacenaphthylene-2-carboxamide]	6.66
Cc1cc(Oc2ccccc2)ccc1N1C(=O)Nc2c(C(=O)N[C@H]3CCC[C@@H]3N(C)C)sc3nccc1c23 [Example 32, N-((1S,2S)-2-(Dimethylamino)cyclopentyl)-5-(2-methyl-4-phenoxyphenyl)-4-oxo-4,5-dihydro-3H-1-thia-3,5,8-triazaacenaphthylene-2-carboxamide]	7.12
CC(=O)N[C@H]1CCCC[C@H]1NC(=O)c1sc2nccc3c2c1NC(=O)N3c1ccc(Oc2ccccc2)cc1C [Example 33, N-((1R,2S)-2-Acetamidocyclohexyl)-5-(2-methyl-4-phenoxyphenyl)-4-oxo-4,5-dihydro-3H-1-thia-3,5,8-triazaacenaphthylene-2-carboxamide]	6.98
CCC(=O)N[C@H]1CCC[C@H]1NC(=O)c1sc2nccc3c2c1NC(=O)N3c1ccc(Oc2ccccc2)cc1C [Example 34, 5-(2-Methyl-4-phenoxyphenyl)-4-oxo-N-((1R,2S)-2-propionamidocyclopentyl)-4,5-dihydro-3H-1-thia-3,5,8-triazaacenaphthylene-2-carboxamide]	6.91
CCC(=O)N[C@H]1CCCC[C@H]1NC(=O)c1sc2nccc3c2c1NC(=O)N3c1ccc(Oc2ccccc2)cc1C [Example 35, 5-(2-Methyl-4-phenoxyphenyl)-4-oxo-N-((1R,2S)-2-propionamidocyclohexyl)-4,5-dihydro-3H-1-thia-3,5,8-triazaacenaphthylene-2-carboxamide]	6.87
CC(=O)N[C@H]1CCC[C@H]1NC(=O)c1sc2nccc3c2c1NC(=O)N3c1ccc(Oc2ccccc2)cc1C [Example 37, N-((1R,2S)-2-Acetamidocyclopentyl)-5-(2-methyl-4-phenoxyphenyl)-4-oxo-4,5-dihydro-3H-1-thia-3,5,8-triazaacenaphthylene-2-carboxamide]	6.68
Cc1cc(Oc2ccccc2)ccc1N1C(=O)Nc2c(C(=O)N[C@@H]3CCCC[C@H]3N)sc3nccc1c23 [Example 38, N-((1R,2R)-2-Aminocyclohexyl)-5-(2-methyl-4-phenoxyphenyl)-4-oxo-4,5-dihydro-3H-1-thia-3,5,8-triazaacenaphthylene-2-carboxamide]	6.68
Cc1cc(Oc2ccccc2)ccc1N1C(=O)Nc2c(C(=O)N[C@H]3CCC[C@H]3O)sc3nccc1c23 [Example 39, N-((1S,2R)-2-Hydroxycyclopentyl)-5-(2-methyl-4-phenoxyphenyl)-4-oxo-4,5-dihydro-3H-1-thia-3,5,8-triazaacenaphthylene-2-carboxamide]	6.51
CC(=O)N[C@H]1CCC[C@@H]1NC(=O)c1sc2nccc3c2c1NC(=O)N3c1ccc(Oc2ccccc2)cc1C [Example 40, N-((1S,2S)-2-Acetamidocyclopentyl)-5-(2-methyl-4-phenoxyphenyl)-4-oxo-4,5-dihydro-3H-1-thia-3,5,8-triazaacenaphthylene-2-carboxamide]	6.40
Cc1cc(Oc2ccccc2)ccc1N1C(=O)Nc2c(C(=O)N[C@H]3CCC[C@@H]3N)sc3nccc1c23 [Example 41, N-((1S,2S)-2-Aminocyclopentyl)-5-(2-methyl-4-phenoxyphenyl)-4-oxo-4,5-dihydro-3H-1-thia-3,5,8-triazaacenaphthylene-2-carboxamide]	6.37
CCC(=O)N[C@@H]1CCCC[C@@H]1NC(=O)c1sc2nccc3c2c1NC(=O)N3c1ccc(Oc2ccccc2)cc1C [Example 42, 5-(2-Methyl-4-phenoxyphenyl)-4-oxo-N-((1S,2R)-2-propionamidocyclohexyl)-4,5-dihydro-3H-1-thia-3,5,8-triazaacenaphthylene-2-carboxamide]	6.24
Cc1cc(Oc2ccccc2)ccc1N1C(=O)Nc2c(C(=O)N[C@@H]3CCCC[C@H]3N(C)C)sc3nccc1c23 [Example 43, N-((1R,2R)-2-(Dimethylamino)cyclohexyl)-5-(2-methyl-4-phenoxyphenyl)-4-oxo-4,5-dihydro-3H-1-thia-3,5,8-triazaacenaphthylene-2-carboxamide]	6.23
CC(=O)N[C@@H]1CCCC[C@@H]1NC(=O)c1sc2nccc3c2c1NC(=O)N3c1ccc(Oc2ccccc2)cc1C [Example 44, N-((1S,2R)-2-Acetamidocyclohexyl)-5-(2-methyl-4-phenoxyphenyl)-4-oxo-4,5-dihydro-3H-1-thia-3,5,8-triazaacenaphthylene-2-carboxamide]	6.17
CCC(=O)N[C@H]1CCC[C@@H]1NC(=O)c1sc2nccc3c2c1NC(=O)N3c1ccc(Oc2ccccc2)cc1C [Example 45, 5-(2-Methyl-4-phenoxyphenyl)-4-oxo-N-((1S,2S)-2-propionamidocyclopentyl)-4,5-dihydro-3H-1-thia-3,5,8-triazaacenaphthylene-2-carboxamide]	6.14
CN[C@H]1CCC[C@@H]1NC(=O)c1sc2nccc3c2c1NC(=O)N3c1ccc(Oc2ccccc2)cc1C [Example 46, 5-(2-Methyl-4-phenoxyphenyl)-N-((1S,2S)-2-(methylamino)cyclopentyl)-4-oxo-4,5-dihydro-3H-1-thia-3,5,8-triazaacenaphthylene-2-carboxamide]	6.14
CC(=O)N[C@@H]1CCCC[C@H]1NC(=O)c1sc2nccc3c2c1NC(=O)N3c1ccc(Oc2ccccc2)cc1C [Example 47, N-((1R,2R)-2-Acetamidocyclohexyl)-5-(2-methyl-4-phenoxyphenyl)-4-oxo-4,5-dihydro-3H-1-thia-3,5,8-triazaacenaphthylene-2-carboxamide]	6.12
Cc1cc(Oc2ccccc2)ccc1N1C(=O)Nc2c(C(=O)N[C@H]3CCCC[C@H]3N(C)C)sc3nccc1c23 [Example 48, N-((1S,2R)-2-(Dimethylamino)cyclohexyl)-5-(2-methyl-4-phenoxyphenyl)-4-oxo-4,5-dihydro-3H-1-thia-3,5,8-triazaacenaphthylene-2-carboxamide]	6.12
Cc1cc(Oc2ccccc2)ccc1N1C(=O)Nc2c(C(=O)N[C@H]3CCCC[C@H]3N)sc3nccc1c23 [Example 49, N-((1S,2R)-2-Aminocyclohexyl)-5-(2-methyl-4-phenoxyphenyl)-4-oxo-4,5-dihydro-3H-1-thia-3,5,8-triazaacenaphthylene-2-carboxamide]	6.12
CN[C@@H]1CCCC[C@@H]1NC(=O)c1sc2nccc3c2c1NC(=O)N3c1ccc(Oc2ccccc2)cc1C [Example 50, 5-(2-Methyl-4-phenoxyphenyl)-N-((1S,2R)-2-(methylamino)cyclohexyl)-4-oxo-4,5-dihydro-3H-1-thia-3,5,8-triazaacenaphthylene-2-carboxamide]	6.07
Cc1cc(Oc2ccccc2)ccc1N1C(=O)Nc2c(C(=O)N[C@H]3CCC[C@H]3N(C)C)sc3nccc1c23 [Example 51, N-((1S,2R)-2-(Dimethylamino)cyclopentyl)-5-(2-methyl-4-phenoxyphenyl)-4-oxo-4,5-dihydro-3H-1-thia-3,5,8-triazaacenaphthylene-2-carboxamide]	6.01
CCC(=O)N[C@@H]1CCCC[C@H]1NC(=O)c1sc2nccc3c2c1NC(=O)N3c1ccc(Oc2ccccc2)cc1C [Example 52, 5-(2-Methyl-4-phenoxyphenyl)-4-oxo-N-((1R,2R)-2-propionamidocyclohexyl)-4,5-dihydro-3H-1-thia-3,5,8-triazaacenaphthylene-2-carboxamide]	6.01
Cc1cc(Oc2ccccc2)ccc1N1C(=O)Nc2c(C(=O)N[C@H]3CCC[C@H]3N)sc3nccc1c23 [Example 53, N-((1S,2R)-2-Aminocyclopentyl)-5-(2-methyl-4-phenoxyphenyl)-4-oxo-4,5-dihydro-3H-1-thia-3,5,8-triazaacenaphthylene-2-carboxamide]	5.95
Cc1cc(Oc2ccccc2)ccc1N1C(=O)Nc2c(C(=O)N[C@H]3CCCC[C@@H]3NC=O)sc3nccc1c23 [Example 54, N-((1S,2S)-2-Formamidocyclohexyl)-5-(2-methyl-4-phenoxyphenyl)-4-oxo-4,5-dihydro-3H-1-thia-3,5,8-triazaacenaphthylene-2-carboxamide]	5.90
CC(=O)N[C@H]1CCCC[C@@H]1NC(=O)c1sc2nccc3c2c1NC(=O)N3c1ccc(Oc2ccccc2)cc1C [Example 55, N-((1S,2S)-2-Acetamidocyclohexyl)-5-(2-methyl-4-phenoxyphenyl)-4-oxo-4,5-dihydro-3H-1-thia-3,5,8-triazaacenaphthylene-2-carboxamide]	5.88
CC(=O)N[C@@H]1CCC[C@@H]1NC(=O)c1sc2nccc3c2c1NC(=O)N3c1ccc(Oc2ccccc2)cc1C [Example 57, N-((1S,2R)-2-Acetamidocyclopentyl)-5-(2-methyl-4-phenoxyphenyl)-4-oxo-4,5-dihydro-3H-1-thia-3,5,8-triazaacenaphthylene-2-carboxamide]	5.65
Cc1cc(Oc2ccccc2)ccc1N1C(=O)Nc2c(C(=O)N[C@H]3CCCC[C@@H]3N)sc3nccc1c23 [Example 58, N-((1S,2S)-2-Aminocyclohexyl)-5-(2-methyl-4-phenoxyphenyl)-4-oxo-4,5-dihydro-3H-1-thia-3,5,8-triazaacenaphthylene-2-carboxamide]	5.51
